Reference: the NIST ThermoML archive (doi:10.1016/j.jct.2017.12.021)
Counter-ions that a name gives are not always drawn. Numbers after ± are expanded uncertainties.

Conditions: 101.33 kPa, Liquid; for viscosity: Capillary tube (Ostwald / Ubbelohde) method; for mass density: Pycnometric method

Row | viscosity (293.15 K) | mass density (293.15 K) | viscosity (298.15 K) | mass density (298.15 K) | viscosity (303.15 K) | mass density (303.15 K) | viscosity (308.15 K) | mass density (308.15 K) | viscosity (313.15 K) | mass density (313.15 K) | viscosity (318.15 K) | mass density (318.15 K) | viscosity (323.15 K) | mass density (323.15 K) | viscosity (328.15 K) | mass density (328.15 K) | viscosity (333.15 K) | mass density (333.15 K) | viscosity (338.15 K) | mass density (338.15 K) | Structure (SMILES)
1 | 3.87 ± 0.39 mPa·s | 981.5 ± 4 kg/m3 | 3.26 ± 0.33 mPa·s | 977 ± 4 kg/m3 | 2.81 ± 0.28 mPa·s | 973.1 ± 4 kg/m3 | 2.42 ± 0.24 mPa·s | 968.4 ± 4 kg/m3 | 2.15 ± 0.22 mPa·s | 963.5 ± 4 kg/m3 | 1.9 ± 0.19 mPa·s | 958.5 ± 3.9 kg/m3 | 1.69 ± 0.17 mPa·s | 953.9 ± 3.9 kg/m3 | 1.55 ± 0.16 mPa·s | 948.9 ± 3.9 kg/m3 | 1.43 ± 0.14 mPa·s | 944.1 ± 3.9 kg/m3 | 1.3 ± 0.13 mPa·s | 940.1 ± 3.9 kg/m3 | CCCCOC(=O)C(C)O (centres undefined) [butyl 2-hydroxypropanoate]
2 | 21.48 ± 2.2 mPa·s | 1158.3 ± 4.7 kg/m3 | 16.36 ± 1.6 mPa·s | 1152.9 ± 4.7 kg/m3 | 12.5 ± 1.3 mPa·s | 1147.4 ± 4.7 kg/m3 | 9.95 ± 1 mPa·s | 1142 ± 4.6 kg/m3 | 8.21 ± 0.82 mPa·s | 1136.6 ± 4.6 kg/m3 | 6.75 ± 0.68 mPa·s | 1131.1 ± 4.6 kg/m3 | 5.66 ± 0.57 mPa·s | 1125.7 ± 4.6 kg/m3 | 4.82 ± 0.48 mPa·s | 1120.2 ± 4.6 kg/m3 | 4.18 ± 0.42 mPa·s | 1114.8 ± 4.5 kg/m3 | 3.67 ± 0.37 mPa·s | 1109.4 ± 4.5 kg/m3 | CC(=O)OCC(COC(C)=O)OC(C)=O [glyceryl triethanoate]
3 | 44.12 ± 4.4 mPa·s | 1138.4 ± 4.7 kg/m3 | 32.1 ± 3.2 mPa·s | 1134.5 ± 4.7 kg/m3 | 20.79 ± 2.1 mPa·s | 1131.1 ± 4.7 kg/m3 | 16.55 ± 1.7 mPa·s | 1126.2 ± 4.7 kg/m3 | 13.18 ± 1.3 mPa·s | 1122.4 ± 4.7 kg/m3 | 10.24 ± 1 mPa·s | 1116.5 ± 4.6 kg/m3 | 8.62 ± 0.87 mPa·s | 1112.1 ± 4.6 kg/m3 | 7.23 ± 0.73 mPa·s | 1106.6 ± 4.6 kg/m3 | 6.41 ± 0.65 mPa·s | 1102.8 ± 4.6 kg/m3 | 5.71 ± 0.57 mPa·s | 1097.3 ± 4.6 kg/m3 | CCOC(=O)CC(O)(CC(=O)OCC)C(=O)OCC [triethyl citrate]
4 |  | 1142.1 ± 5.2 kg/m3 | 46.55 ± 4.7 mPa·s | 1137.5 ± 5.2 kg/m3 | 34.56 ± 3.5 mPa·s | 1133.1 ± 5.2 kg/m3 | 25.1 ± 2.6 mPa·s | 1127.6 ± 5.1 kg/m3 | 17.52 ± 1.8 mPa·s | 1124.1 ± 5.1 kg/m3 | 13.81 ± 1.4 mPa·s | 1118.5 ± 5.1 kg/m3 | 10.95 ± 1.1 mPa·s | 1115.1 ± 5.1 kg/m3 | 8.86 ± 0.9 mPa·s | 1110.1 ± 5.1 kg/m3 | 7.98 ± 0.81 mPa·s | 1105.4 ± 5 kg/m3 | 7.02 ± 0.71 mPa·s | 1100.5 ± 5 kg/m3 | CCOC(=O)CC(CC(=O)OCC)(OC(C)=O)C(=O)OCC [triethyl acetyl citrate]
